Measured values as given in PubChem BioAssay AID256 (DTP/NCI, 2004).
“And” between values parts separate entries of the source, which are not always exact repeats. Equal values may be shown once. Toxic doses and inconclusive results are not listed. How the source made its calls: active means survival T/C of 150% or more; inactive means T/C below 125% in these data.

System: CD2F1 mice, L1210 leukemia ip, survival T/C
Test: NCI In Vivo Anticancer Drug Screen. Data for tumor model L1210 Leukemia (intraperitoneal) in CD2F1 (CDF1) mice
Settings: higher = longer survival
In short: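 Read-out first: treated-group measurement over vehicle-control measurement, expressed as a ratio. Animals bore a transplanted tumor line and were dosed with compound or vehicle.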

[1] = endpoint: mean survival time, dose: 100.0 mg/kg/injection, schedule: Q01DX009 (ip), vehicle: saline with Tween-80
[2] = endpoint: mean survival time, dose: 100.0 mg/kg/injection, schedule: Q04DX003 (ip), vehicle: saline with Tween-80
[3] = endpoint: mean survival time, dose: 200.0 mg/kg/injection, schedule: Q01DX009 (ip), vehicle: saline with Tween-80
[4] = endpoint: mean survival time, dose: 200.0 mg/kg/injection, schedule: Q04DX003 (ip), vehicle: saline with Tween-80
[5] = endpoint: mean survival time, dose: 400.0 mg/kg/injection, schedule: Q01DX009 (ip), vehicle: saline with Tween-80
[6] = endpoint: mean survival time, dose: 400.0 mg/kg/injection, schedule: Q04DX003 (ip), vehicle: saline with Tween-80
[7] = endpoint: mean survival time, dose: 100.0 mg/kg/injection, schedule: Q04DX002 (ip), vehicle: saline
[8] = endpoint: mean survival time, dose: 100.0 mg/kg/injection, schedule: Q04DX002 (ip), vehicle: saline with Tween-80
[9] = endpoint: mean survival time, dose: 200.0 mg/kg/injection, schedule: Q04DX002 (ip), vehicle: saline with Tween-80
[10] = endpoint: mean survival time, dose: 12.5 mg/kg/injection, schedule: Q04DX003 (ip), vehicle: saline
[11] = endpoint: mean survival time, dose: 100.0 mg/kg/injection, schedule: Q01DX001 (ip), vehicle: saline
[12] = endpoint: mean survival time, dose: 100.0 mg/kg/injection, schedule: Q04DX003 (ip), vehicle: saline
[13] = endpoint: mean survival time, dose: 100.0 mg/kg/injection, schedule: Q01DX009 (ip), vehicle: other
[14] = endpoint: mean survival time, dose: 200.0 mg/kg/injection, schedule: Q01DX009 (ip), vehicle: other
[15] = endpoint: mean survival time, dose: 50.0 mg/kg/injection, schedule: Q04DX003 (ip), vehicle: saline with Tween-80
[16] = endpoint: mean survival time, dose: 50.0 mg/kg/injection, schedule: Q01DX009 (ip), vehicle: saline with Tween-80

Measured: T/C

COC(=O)C1=C(NC(=O)Nc2ccc(OC)cc2)OC(C)(C)C1c1ccc(Cl)cc1 (stereo not given)
inactive: [1] 93 % of control | [2] 92 % of control | [3] 93 % of control | [4] 87 % of control | [5] 94 % of control | [6] 92 % of control

CCCC(C)CC1CCC(N)CC1 (stereo not given)
inactive: [7] 96 % of control | endpoint: mean survival time, dose: 200.0 mg/kg/injection, schedule: Q04DX002 (ip), vehicle: saline 96 % of control

Cc1nccc2cc3c(cc12)Cc1ccccc1-3
inactive: [8] 88 % of control | [9] 92 % of control | endpoint: mean survival time, dose: 400.0 mg/kg/injection, schedule: Q04DX002 (ip), vehicle: saline with Tween-80 88 % of control

C1CCC(CCC2CCCC[N-]2)[N-]C1.C1CCC(CCC2CCCC[N-]2)[N-]C1.[Ni+2].[O-][Cl+3]([O-])([O-])O (stereo not given)
inactive: endpoint: mean survival time, dose: 5.0 mg/kg/injection, schedule: Q01DX009 (ip), vehicle: saline 103 % of control | endpoint: mean survival time, dose: 10.0 mg/kg/injection, schedule: Q01DX009 (ip), vehicle: saline 104 % of control | endpoint: mean survival time, dose: 12.5 mg/kg/injection, schedule: Q01DX001 (ip), vehicle: saline with Tween-80 90 % of control | endpoint: mean survival time, dose: 12.5 mg/kg/injection, schedule: Q04DX002 (ip), vehicle: saline 95 % of control | [10] 104 % of control | endpoint: mean survival time, dose: 20.0 mg/kg/injection, schedule: Q01DX009 (ip), vehicle: saline 103 % of control | endpoint: mean survival time, dose: 25.0 mg/kg/injection, schedule: Q01DX001 (ip), vehicle: saline 102 % of control | endpoint: mean survival time, dose: 25.0 mg/kg/injection, schedule: Q04DX002 (ip), vehicle: saline 98 % of control | endpoint: mean survival time, dose: 25.0 mg/kg/injection, schedule: Q04DX003 (ip), vehicle: saline 108 % of control | endpoint: mean survival time, dose: 40.0 mg/kg/injection, schedule: Q01DX009 (ip), vehicle: saline 109 % of control | endpoint: mean survival time, dose: 50.0 mg/kg/injection, schedule: Q01DX001 (ip), vehicle: saline 102 % of control | endpoint: mean survival time, dose: 50.0 mg/kg/injection, schedule: Q04DX002 (ip), vehicle: saline 98 % of control | endpoint: mean survival time, dose: 50.0 mg/kg/injection, schedule: Q04DX003 (ip), vehicle: saline 102 % of control | endpoint: mean survival time, dose: 75.0 mg/kg/injection, schedule: Q01DX001 (ip), vehicle: saline 101 % of control | [11] 102 % of control | [7] 102 % of control | [12] 104 % of control

CCOC(=O)C(Cc1ccc(OC)cc1)P(=O)(OCC)OCC (stereo not given)
inactive: [11] 106 % of control | endpoint: mean survival time, dose: 200.0 mg/kg/injection, schedule: Q01DX001 (ip), vehicle: saline 108 % of control | endpoint: mean survival time, dose: 400.0 mg/kg/injection, schedule: Q01DX001 (ip), vehicle: saline 101 % of control

CC(CCC(=O)O)(c1cc(Br)c(O)c(Br)c1)c1cc(Br)c(O)c(Br)c1
inactive: [13] 96 % of control | [14] 102 % of control | endpoint: mean survival time, dose: 400.0 mg/kg/injection, schedule: Q01DX009 (ip), vehicle: other 101 % of control

c1ccc(OCCOc2ccccc2)cc1
inactive: [15] 98 % of control | [2] 89 % of control | [4] 91 % of control

O=S(CCO)c1c(Cl)c(Cl)c(Cl)c(Cl)c1Cl (stereo not given)
inactive: [8] 94 % of control | [9] 94 % of control

c1ccc(Cc2ccccc2-c2ccccc2)cc1
inactive: endpoint: mean survival time, dose: 100.0 mg/kg/injection, schedule: Q04DX003 (ip), vehicle: Klucel (hydroxypropylcellulose) (HPC) 89 % of control | endpoint: mean survival time, dose: 200.0 mg/kg/injection, schedule: Q04DX003 (ip), vehicle: Klucel (hydroxypropylcellulose) (HPC) 89 % of control | endpoint: mean survival time, dose: 400.0 mg/kg/injection, schedule: Q04DX003 (ip), vehicle: Klucel (hydroxypropylcellulose) (HPC) 93 % of control

COc1ccc(C(=O)NCCc2ccc(OC)c(OC)c2)cc1O
inactive: endpoint: mean survival time, dose: 12.5 mg/kg/injection, schedule: Q01DX009 (ip), vehicle: other 100 % of control | endpoint: mean survival time, dose: 25.0 mg/kg/injection, schedule: Q01DX009 (ip), vehicle: other 94 % of control | endpoint: mean survival time, dose: 50.0 mg/kg/injection, schedule: Q01DX009 (ip), vehicle: other 96 % of control | [13] 90 % of control | [14] 96 % of control

CCOC(=O)C#CC1CCCCC1
inactive: [16] 98 % of control | [1] 98 % of control | [3] 102 % of control

N#C/C(=C(\N)c1ccccc1)c1ccccc1
inactive: endpoint: mean survival time, dose: 100.0 mg/kg/injection, schedule: Q01DX001 (ip), vehicle: Klucel (hydroxypropylcellulose) (HPC) 93 % of control | endpoint: mean survival time, dose: 400.0 mg/kg/injection, schedule: Q01DX001 (ip), vehicle: Klucel (hydroxypropylcellulose) (HPC) 112 % of control

CC(=O)CC(=O)C(F)(F)F.CC(=O)CC(=O)C(F)(F)F.[Ni]
inactive: endpoint: median survival time, dose: 25.0 mg/kg/injection, schedule: Q04DX002 (ip), vehicle: saline with Tween-80 100 % of control | endpoint: median survival time, dose: 50.0 mg/kg/injection, schedule: Q04DX002 (ip), vehicle: saline with Tween-80 122 % of control

CCOC(=O)CC(c1ccccc1)C(C(=O)OCC)C(=O)OCC (stereo not given)
inactive: [1] 91 % of control | [3] 91 % of control | [5] 98 % of control

O=C1CCC/C1=C/c1ccco1
inactive: endpoint: mean survival time, dose: 25.0 mg/kg/injection, schedule: Q01DX009 (ip), vehicle: saline with Tween-80 93 % of control | [16] 95 % of control | [1] 86 % of control and 90 % of control

COc1ccc(C(C)C(O)c2ccccc2)cc1 (stereo not given)
inactive: [12] 103 % of control | endpoint: mean survival time, dose: 200.0 mg/kg/injection, schedule: Q04DX003 (ip), vehicle: saline 108 % of control | endpoint: mean survival time, dose: 400.0 mg/kg/injection, schedule: Q04DX003 (ip), vehicle: saline 102 % of control

CCOC(=O)c1[nH]c2cccc3c2c1CC(Br)C3=O (stereo not given)
inactive: endpoint: median survival time, dose: 12.5 mg/kg/injection, schedule: Q01DX009 (ip), vehicle: saline with Tween-80 120 % of control | endpoint: median survival time, dose: 25.0 mg/kg/injection, schedule: Q01DX009 (ip), vehicle: saline with Tween-80 109 % of control | endpoint: median survival time, dose: 50.0 mg/kg/injection, schedule: Q01DX009 (ip), vehicle: saline with Tween-80 109 % of control | endpoint: median survival time, dose: 100.0 mg/kg/injection, schedule: Q01DX009 (ip), vehicle: saline with Tween-80 107 % of control

O=S(=O)(O)O.[NH-]C1CCCCC1[NH-].[Pt+2] (stereo not given)
inactive: endpoint: mean survival time, dose: 0.04 mg/kg/injection, schedule: Q01DX009 (ip), vehicle: water 109 % of control | endpoint: mean survival time, dose: 0.05 mg/kg/injection, schedule: Q04DX003 (ip), vehicle: water 110 % of control | endpoint: mean survival time, dose: 0.32 mg/kg/injection, schedule: Q01DX001 (ip), vehicle: water 120 % of control | endpoint: mean survival time, dose: 0.63 mg/kg/injection, schedule: Q01DX001 (ip), vehicle: dextrose 124 % of control | endpoint: mean survival time, dose: 0.63 mg/kg/injection, schedule: Q04DX003 (oral), vehicle: water 96 % of control | endpoint: mean survival time, dose: 0.78 mg/kg/injection, schedule: Q04DX003 (ip), vehicle: dextrose 119 % of control | endpoint: mean survival time, dose: 1.2 mg/kg/injection, schedule: Q01DX009 (oral), vehicle: water 100 % of control | endpoint: mean survival time, dose: 1.25 mg/kg/injection, schedule: Q01DX001 (ip), vehicle: dextrose 119 % of control | endpoint: mean survival time, dose: 1.25 mg/kg/injection, schedule: Q01DX001 (oral), vehicle: water 98 % of control | endpoint: mean survival time, dose: 1.25 mg/kg/injection, schedule: Q04DX003 (oral), vehicle: water 98 % of control | endpoint: mean survival time, dose: 1.56 mg/kg/injection, schedule: Q04DX003 (ip), vehicle: saline with Tween-80 100 % of control | endpoint: mean survival time, dose: 2.4 mg/kg/injection, schedule: Q01DX009 (oral), vehicle: water 97 % of control | endpoint: mean survival time, dose: 2.5 mg/kg/injection, schedule: Q01DX001 (ip), vehicle: dextrose 124 % of control | endpoint: mean survival time, dose: 3.12 mg/kg/injection, schedule: Q04DX003 (ip), vehicle: saline with Tween-80 110 % of control | endpoint: mean survival time, dose: 5.0 mg/kg/injection, schedule: Q01DX001 (oral), vehicle: water 100 % of control | endpoint: mean survival time, dose: 10.0 mg/kg/injection, schedule: Q01DX001 (ip), vehicle: dextrose 109 % of control | endpoint: mean survival time, dose: 10.0 mg/kg/injection, schedule: Q04DX003 (oral), vehicle: water 98 % of control | endpoint: mean survival time, dose: 12.5 mg/kg/injection, schedule: Q04DX003 (ip), vehicle: dextrose 110 % of control | [10] 93 % of control | endpoint: mean survival time, dose: 40.0 mg/kg/injection, schedule: Q01DX001 (oral), vehicle: water 109 % of control

CC(=O)Nc1ccccc1Sc1ccncc1[N+](=O)[O-]
inactive: [1] 100 % of control | [2] 88 % of control | [3] 100 % of control | [4] 92 % of control | [5] 90 % of control | [6] 95 % of control

C=C(C)C(=O)OCC(O)C[N+](C)(C)C (stereo not given)
inactive: [15] 96 % of control | [2] 87 % of control
